The target of data set [1] is T1, GCS-HD-GYP (V. fluvialis) (Vibrio fluvialis, UniProt A0AAX2LUU7).
T1 construct: gene AL536_01530; full length, C-terminal His6 tag kept, pET-21a (codon-optimized), E. coli BL21(DE3), heme-reconstituted in crude extract; mainly dimer (85 kDa by SEC)
Description: HPLC hydrolysis assay, […] nm. Format: biochemical. As to conditions: 1 mM MnCl2, pH 8.0, 20 °C.

In a further data set the target is T2, V. furnissii GCS-HD-GYP (Vibrio furnissii, UniProt A0A0Q2RS25).
T2 construct: gene AMR76_07425; full length, C-terminal His6 tag kept, pET-21a (codon-optimized), E. coli host; dimer
Description: HPLC hydrolysis assay, […] nm. Format: biochemical. As to conditions: 1 mM MnCl2, pH 8.0, 20 °C; Fe(III) heme form; optimal conditions of V. fluvialis enzyme.

Data set [2] concerns the molecule itself. Description: SEC; Superdex 200 Increase 10/300 GL, 50 mM Tris-HCl pH 8.0, 100 mM NaCl; 100 uL of 20 uM protein injected; mass estimated from standard proteins.

The values that follow come from paper PMC10882959, “Gas-Selective Catalytic Regulation by a Newly Identified Globin-Coupled Sensor Phosphodiesterase Containing an HD-GYP Domain from the Human Pathogen Vibrio fluvialis” (Biochemistry, 2024).

“And” between values parts separate entries of the source, which are not always exact repeats. Equal values may be shown once.

For `Nc1nc2c(ncn2[C@@H]2O[C@@H]3COP(=O)(O)O[C@H]4[C@@H](O)[C@H](n5cnc6c(=O)[nH]c(N)nc65)O[C@@H]4COP(=O)(O)O[C@H]3[C@H]2O)c(=O)[nH]1` [c-di-GMP], the “HPLC hydrolysis assay, 254 nm” value in data set [1] (0.1 mM c-di-GMP, Fe(III) or Fe(II)-O2 heme form) is “The Fe(III) and Fe(II)-O2 complexes of GCS-HD-GYP catalyzed the hydrolysis of c-di-GMP to form pGpG”; at V. furnissii GCS-HD-GYP, “the specific activity for the PDE activity of the Fe(III) complex of V. furnissii GCS-HD-GYP”.

With `Nc1nc2c(ncn2[C@@H]2O[C@H](COP(=O)(O)O[C@H]3[C@@H](O)[C@H](n4cnc5c(=O)[nH]c(N)nc54)O[C@@H]3COP(=O)(O)O)[C@@H](O)[C@H]2O)c(=O)[nH]1` [pGpG], the “HPLC hydrolysis assay, 254 nm” value in data set [1] (product of c-di-GMP hydrolysis, Fe(III) heme form) is reported as “conversion of c-di-GMP to a new compound, namely its linearized product pGpG”.

B1: Vibrio fluvialis GCS-HD-GYP (globin-coupled sensor phosphodiesterase containing an HD-GYP domain) (enzyme, UniProt A0AAX2LUU7 1-375, looked up)
chain: METAFSSEPESVIRRWASYLVIDQQTLNTLREFYWVMEQNIDDILSHVYAHLSSNRETAHFYQDEQSVKRAKAHQREHMMRYVFRGNFGAEYYNATNRIGKTHHKLGIDFKIYSGAYCIVLSQLAGVVYKVLAPEIGNVQRYMTALNRVIFMDMGLATSVYYDTACLELEELAHELNFALAKAGEFRDNETGEHIKRISRMSFELAKAAGQEPHWCKMIQIASPLHDVGKIGVPDDILLKPGKLDEQEWNVMQQHPAMGGVIIPDNKSELIRMARRISLTHHEKWDGSGYPAGLKGEEIPLEGRIVAICDVFDALLSTRPYKRPWSMEEVGTYLRDNRGKHFDPQLLDIFIENLANMQLIRCQFEDAVSPEIVAD
notes: GCS-HD-GYP of Vibrio fluvialis, gene AL536_01530, UniProtKB A0A120L350; full-length protein, predicted mass 44.1 kDa with the C-terminal His6 tag; globin domain residues 1-166, HD-GYP domain residues 169-366; Synthetic, codon-optimised gene in pET-21a (NdeI/XhoI); Mostly a dimer, with a minor tetramer peak by SEC; also called V. fluvialis GCS-HD-GYP; AL536_01530; source: E. coli BL21(DE3), …
What is called stoichiometry N is the number of molecules, sites or subunits per partner or assembly. B1: the “stoichiometry N” value in data set [2] was 2 and 4.

B2: Vibrio furnissii GCS-HD-GYP (enzyme, UniProt A0A0Q2RS25 1-375, looked up)
chain: MEVAFGSDPGNAIRRWASYLAIDQQTVDALREYYWIMERNIDEVLAFVYDHLSSCPETAQFYQNEQSIVRARGHLRDHLMLYVFRGHFGVDYYNATIRIGQTHQRLGIDFKVYSGAYCIVMSQLARVVYQSLAPNIDNIHRYMSALNRAIFLDLGLATAVYYDTACFELEELAYELNFALAKAGEFRDNETGEHIKRISRMSFELAKALGQPAHWCKMIQIASPLHDVGKIGVPDEILLKPGKLDADEWKLMQQHPAIGGDIIPDNKSELIRMARRISLTHHEKWDGSGYPAGLAGEEIPLEGRIVAICDVFDALLSTRPYKRAWSVAEVVAYLRENRAKHFDPLLLDCFLEHLDSMLHIRHQFEDAAQPETVAD
notes: GCS-HD-GYP of Vibrio furnissii, gene AMR76_07425, UniProtKB A0A0Q2RS25; molecular mass 43.9 kDa with the C-terminal His6 tag; The synthetic, codon-optimised gene was put into pET-21a (NdeI/XhoI); also called V. furnissii GCS-HD-GYP; AMR76_07425; source: E. coli, purified; not shown: His6, C-terminal, kept
On to B2, for which the “stoichiometry N” value in data set [2] is 2.
